pKd: −log10 of the molar value.
Target: T1, CCL21 (Homo sapiens, UniProt O00585)
T1 sequence (O00585 24-134): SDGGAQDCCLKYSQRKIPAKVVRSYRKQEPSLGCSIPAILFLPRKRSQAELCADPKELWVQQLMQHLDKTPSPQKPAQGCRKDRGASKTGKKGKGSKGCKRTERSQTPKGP
Assay: […]-1H HSQC NMR titration, chemical shift perturbation fit with ligand depletion
Type: binding
Details: 100 µM 15N-CCL21, 25 mM deuterated MES pH 6.0, 10% D2O, 0.2% NaN3

O=C(O)C1=C[C@H](O)[C@@H](OS(=O)(=O)O)[C@H](O[C@H]2[C@H](O)[C@@H](NS(=O)(=O)O)C(O)O[C@@H]2COS(=O)(=O)O)O1 (stereo partly shown) [heparin disaccharide I-S]
pKd: ~3.30
